Reference: patent US12018021B2 (UCB Biopharma SRL, priority 2018, dated 2024)

Molecular target: IgE-Tb / FcεRIα-Y131A-AF488 (Homo sapiens, UniProt P01854)
Assay: IgE-Tb / FcεRIα-Y131A-AF488 FRET assay (protocol for examples 1 to 233)
Type: binding
Conditions: examples 1 to 233: 5 nM IgE-Tb, 25 nM FcεRIα-Y131A-AF488, incubated 2 hours at room temperature; read-out: Y131A FRET IC50 range
In short: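 TR-FRET displacement with 5 nM IgE-Tb and 25 nM FcεRIα-Y131A-AF488 (final), 10-point 3-fold compound dilutions from typically 10 μM top, 2% DMSO, 2 h at room temperature. Excitation 330 nm, 520/495 nm emission ratio; MIN set with 200 nM unlabelled FcεRIα. IC50 from four-parameter logistic fit of percent inhibition.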

IgE-Tb / FcεRIα-Y131A-AF488, sequence (P01854 1-427 limits assumed, stated change not applied): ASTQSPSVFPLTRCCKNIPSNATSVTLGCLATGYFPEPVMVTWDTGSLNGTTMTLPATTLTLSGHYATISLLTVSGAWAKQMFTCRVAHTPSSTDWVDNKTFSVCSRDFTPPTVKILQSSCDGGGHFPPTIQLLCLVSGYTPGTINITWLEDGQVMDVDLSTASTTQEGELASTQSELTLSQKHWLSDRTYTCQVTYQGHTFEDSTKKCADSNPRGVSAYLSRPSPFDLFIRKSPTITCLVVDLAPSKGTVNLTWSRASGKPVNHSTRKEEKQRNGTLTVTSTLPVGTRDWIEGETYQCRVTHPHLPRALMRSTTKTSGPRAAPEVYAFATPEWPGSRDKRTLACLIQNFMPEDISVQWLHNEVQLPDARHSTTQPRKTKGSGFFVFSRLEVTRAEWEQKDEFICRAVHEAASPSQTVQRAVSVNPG

| SMILES | IC50 [nM] |
| --- | --- |
| CC(C)c1cc(Nc2nncn2[C@H]2CCc3sc(NC(=O)C4CC4)c(C(=O)NCC4CC4)c3C2)n(C)n1 [Example 220, (5S)-2-(cyclopropanecarbonylamino)-N-(cyclopropylmethyl)-5-[3-[(5-isopropyl-2-methyl-pyrazol-3-yl)amino]-1,2,4-triazol-4-yl]-4,5,6,7-tetrahydrobenzothiophene-3-carboxamide] | < 1000 |
| Cn1nc(C(F)(F)F)cc1Nc1nncn1[C@H]1CCc2sc(NC(=O)C3CC3)c(C(=O)NCC3CC3)c2C1 [Example 221, (5S)-2-(cyclopropanecarbonylamino)-N-(cyclopropylmethyl)-5-[3-[[2-methyl-5-(trifluoromethyl)pyrazol-3-yl]amino]-1,2,4-triazol-4-yl]-4,5,6,7-tetrahydrobenzothiophene-3-carboxamide] | < 1000 |
| Cc1cc(Nc2nncn2[C@H]2CCc3sc(NC(=O)C4CC4)c(C(=O)NCC4CC4)c3C2)n(C(C)C)n1 [Example 222, (5S)-2-(cyclopropanecarbonylamino)-N-(cyclopropylmethyl)-5-[3-[(2-isopropyl-5-methyl-pyrazol-3-yl)amino]-1,2,4-triazol-4-yl]-4,5,6,7-tetrahydrobenzothiophene-3-carboxamide] | < 1000 |
| Cc1cc(Nc2nncn2[C@H]2CCc3sc(NC(=O)C4CC4)c(C(=O)NCC4CC4)c3C2)n(C2CCOC2)n1 (stereo partly drawn) [Example 223, (5S)-2-(cyclopropanecarbonylamino)-N-(cyclopropylmethyl)-5-[3-[(5-methyl-2-tetrahydrofuran-3-yl-pyrazol-3-yl)amino]-1,2,4-triazol-4-yl]-4,5,6,7-tetrahydrobenzothiophene-3-carboxamide] | < 1000 |
| Cn1nccc1Nc1nncn1[C@H]1CCc2sc(NC(=O)C3CC3)c(C(=O)NCC3CC3)c2C1 [Example 224, (5S)-2-(cyclopropanecarbonylamino)-N-(cyclopropylmethyl)-5-[3-[(2-methylpyrazol-3-yl)amino]-1,2,4-triazol-4-yl]-4,5,6,7-tetrahydrobenzothiophene-3-carboxamide] | < 1000 |
| CCn1nc(C)cc1Nc1nncn1[C@H]1CCc2sc(NC(=O)C3CC3)c(C(=O)NCC3CC3)c2C1 [Example 225, (5S)-2-(cyclopropanecarbonylamino)-N-(cyclopropylmethyl)-5-[3-[(2-ethyl-5-methyl-pyrazol-3-yl)amino]-1,2,4-triazol-4-yl]-4,5,6,7-tetrahydrobenzothiophene-3-carboxamide] | < 1000 |
| Cc1cc(Nc2nncn2[C@H]2CCc3sc(NC(=O)C4CC4)c(C(=O)NCC4CC4)c3C2)n(C2CC2)n1 [Example 226, (5S)-2-(cyclopropanecarbonylamino)-N-(cyclopropylmethyl)-5-[3-[(2-cyclopropyl-5-methyl-pyrazol-3-yl)amino]-1,2,4-triazol-4-yl]-4,5,6,7-tetrahydrobenzothiophene-3-carboxamide] | < 1000 |
| COc1nn(C)cc1Nc1nncn1[C@H]1CCc2sc(NC(=O)C3CC3)c(C(=O)NCC3CC3)c2C1 [Example 227, (5S)-2-(cyclopropanecarbonylamino)-N-(cyclopropylmethyl)-5-[3-[(3-methoxy-1-methy-pyrazol-4-yl)amino]-1,2,4-triazol-4-yl]-4,5,6,7-tetrahydrobenzothiophene-3-carboxamide] | < 1000 |
| CCc1cc(Nc2nncn2[C@H]2CCc3sc(NC(=O)C4CC4)c(C(=O)NCC4CC4)c3C2)n(C)n1 [Example 228, (5S)-2-(cyclopropanecarbonylamino)-N-(cyclopropylmethyl)-5-[3-[(5-ethyl-2-methyl-pyrazol-3-yl)amino]-1,2,4-triazol-4-yl]-4,5,6,7-tetrahydrobenzothiophene-3-carboxamide] | < 1000 |
| Cn1nc(C(F)F)cc1Nc1nncn1[C@H]1CCc2sc(NC(=O)C3CC3)c(C(=O)NCC3CC3)c2C1 [Example 229, (5S)-2-(Cyclopropanecarbonylamino)-N-(cyclopropylmethyl)-5-[3-[[5-(difluoromethyl)-2-methyl-pyrazol-3-yl]amino]-1,2,4-triazol-4-yl]-4,5,6,7-tetrahydrobenzothiophene-3-carboxamide] | < 1000 |
| Cc1cn(C)nc1Nc1nncn1[C@H]1CCc2sc(NC(=O)C3CC3)c(C(=O)NCC3CC3)c2C1 [Example 230, (5S)-2-(Cyclopropanecarbonylamino)-N-(cyclopropylmethyl)-5-[3-[(1,4-dimethylpyrazol-3-yl)amino]-1,2,4-triazol-4-yl]-4,5,6,7-tetrahydrobenzothiophene-3-carboxamide] | < 1000 |
| COC(=O)c1cc(Nc2nncn2[C@H]2CCc3sc(NC(=O)C4CC4)c(C(=O)NCC4CC4)c3C2)n(C)n1 [Example 231, Methyl 5-[[4-[(5S)-2-(cyclopropanecarbonylamino)-3-(cyclopropylmethylcarbamoyl)-4,5,6,7-tetrahydrobenzothiophen-5-yl]-1,2,4-triazol-3-yl]amino]-1-methyl-pyrazole-3-carboxylate] | < 1000 |
| Cn1nc(C(F)(F)F)cc1Nc1nccn1[C@H]1CCc2sc(NC(=O)C3CC3)c(C(=O)NCC3CC3)c2C1 [Example 232, (5S)-2-(Cyclopropanecarbonylamino)-N-(cyclopropylmethyl)-5-[2-[[2-methyl-5-(trifluoromethyl)pyrazol-3-yl]amino]imidazol-1-yl]-4,5,6,7-tetrahydrobenzothiophene-3-carboxamide] | < 1000 |
| Cn1nc(C(=O)O)cc1Nc1nncn1[C@H]1CCc2sc(NC(=O)C3CC3)c(C(=O)NCC3CC3)c2C1 [Example 233, 5-[[4-[(5S)-2-(Cyclopropanecarbonylamino)-3-(cyclopropylmethylcarbamoyl)-4,5,6,7-tetrahydrobenzothiophen-5-yl]-1,2,4-triazol-3-yl]amino]-1-methyl-pyrazole-3-carboxylic acid] | < 1000 |
